The compounds below were run against LRRK2 recombinant protein (Homo sapiens (Human), UniProt Q5S007) (assay: radiometric protein kinase assay (33PanQinase Activity Assay) for LRRK2). Conditions: ATP 0.3 μM, LRRK2 7.3 nM, substrate GSK3(14-27), 30° C. for 60 minutes.
Type: biochemical
Description: The inhibition of LRRK2 kinase was assessed using LRRK2 recombinant protein in an in vitro peptide-based kinase assay.
A radiometric protein kinase assay (^33PanQinase® Activity Assay) is used for measuring the kinase activity. All assays are performed in 96-well FlashPlates™ from Perkin Elmer in a 50 μl reaction volume. The reaction cocktail is pipetted in 4 steps in the following order: • 10 μl of non-radioactive ATP solution (in H2O) • 25 μl of assay buffer/[γ-^33P]-ATP mixture • 5 μl of test sample in 10% DMSO • 10 μl of enzyme/substrate mixture
The assay for LRRK2 contains 70 mM HEPES-NaOH pH 7.5, 3 mM MgCl2, 3 mM MnCl2, 3 μM Na-orthovanadate, 1.2 mM DTT, 50 μg/ml PEG20000, ATP (0.3 μM), [γ-^33P]-ATP (approx. […] per well), protein kinase LRRK2 (7.3 nM) and substrate (GSK3(14-27), 1.0 μg/50 μl).
The kinase is obtained from Invitrogen Corporation.
The reaction cocktails were incubated at 30° C. for 60 minutes. The reaction was stopped with 50 μl of 2% (v/v) H3PO4, plates were aspirated and washed two times with 200 μl 0.9% (w/v) NaCl. Incorporation of ^33Pi (counting of “cpm”) was determined with a microplate scintillation counter.
The compounds are dissolved to 10 mM in DMSO. Where needed, solutions are sonicated in a bath sonicator.
Table 2 provides the pIC50 values of the compounds according to the invention, obtained using the above mentioned kinase assay.

Sequence of LRRK2 recombinant protein (Q5S007 whole entry): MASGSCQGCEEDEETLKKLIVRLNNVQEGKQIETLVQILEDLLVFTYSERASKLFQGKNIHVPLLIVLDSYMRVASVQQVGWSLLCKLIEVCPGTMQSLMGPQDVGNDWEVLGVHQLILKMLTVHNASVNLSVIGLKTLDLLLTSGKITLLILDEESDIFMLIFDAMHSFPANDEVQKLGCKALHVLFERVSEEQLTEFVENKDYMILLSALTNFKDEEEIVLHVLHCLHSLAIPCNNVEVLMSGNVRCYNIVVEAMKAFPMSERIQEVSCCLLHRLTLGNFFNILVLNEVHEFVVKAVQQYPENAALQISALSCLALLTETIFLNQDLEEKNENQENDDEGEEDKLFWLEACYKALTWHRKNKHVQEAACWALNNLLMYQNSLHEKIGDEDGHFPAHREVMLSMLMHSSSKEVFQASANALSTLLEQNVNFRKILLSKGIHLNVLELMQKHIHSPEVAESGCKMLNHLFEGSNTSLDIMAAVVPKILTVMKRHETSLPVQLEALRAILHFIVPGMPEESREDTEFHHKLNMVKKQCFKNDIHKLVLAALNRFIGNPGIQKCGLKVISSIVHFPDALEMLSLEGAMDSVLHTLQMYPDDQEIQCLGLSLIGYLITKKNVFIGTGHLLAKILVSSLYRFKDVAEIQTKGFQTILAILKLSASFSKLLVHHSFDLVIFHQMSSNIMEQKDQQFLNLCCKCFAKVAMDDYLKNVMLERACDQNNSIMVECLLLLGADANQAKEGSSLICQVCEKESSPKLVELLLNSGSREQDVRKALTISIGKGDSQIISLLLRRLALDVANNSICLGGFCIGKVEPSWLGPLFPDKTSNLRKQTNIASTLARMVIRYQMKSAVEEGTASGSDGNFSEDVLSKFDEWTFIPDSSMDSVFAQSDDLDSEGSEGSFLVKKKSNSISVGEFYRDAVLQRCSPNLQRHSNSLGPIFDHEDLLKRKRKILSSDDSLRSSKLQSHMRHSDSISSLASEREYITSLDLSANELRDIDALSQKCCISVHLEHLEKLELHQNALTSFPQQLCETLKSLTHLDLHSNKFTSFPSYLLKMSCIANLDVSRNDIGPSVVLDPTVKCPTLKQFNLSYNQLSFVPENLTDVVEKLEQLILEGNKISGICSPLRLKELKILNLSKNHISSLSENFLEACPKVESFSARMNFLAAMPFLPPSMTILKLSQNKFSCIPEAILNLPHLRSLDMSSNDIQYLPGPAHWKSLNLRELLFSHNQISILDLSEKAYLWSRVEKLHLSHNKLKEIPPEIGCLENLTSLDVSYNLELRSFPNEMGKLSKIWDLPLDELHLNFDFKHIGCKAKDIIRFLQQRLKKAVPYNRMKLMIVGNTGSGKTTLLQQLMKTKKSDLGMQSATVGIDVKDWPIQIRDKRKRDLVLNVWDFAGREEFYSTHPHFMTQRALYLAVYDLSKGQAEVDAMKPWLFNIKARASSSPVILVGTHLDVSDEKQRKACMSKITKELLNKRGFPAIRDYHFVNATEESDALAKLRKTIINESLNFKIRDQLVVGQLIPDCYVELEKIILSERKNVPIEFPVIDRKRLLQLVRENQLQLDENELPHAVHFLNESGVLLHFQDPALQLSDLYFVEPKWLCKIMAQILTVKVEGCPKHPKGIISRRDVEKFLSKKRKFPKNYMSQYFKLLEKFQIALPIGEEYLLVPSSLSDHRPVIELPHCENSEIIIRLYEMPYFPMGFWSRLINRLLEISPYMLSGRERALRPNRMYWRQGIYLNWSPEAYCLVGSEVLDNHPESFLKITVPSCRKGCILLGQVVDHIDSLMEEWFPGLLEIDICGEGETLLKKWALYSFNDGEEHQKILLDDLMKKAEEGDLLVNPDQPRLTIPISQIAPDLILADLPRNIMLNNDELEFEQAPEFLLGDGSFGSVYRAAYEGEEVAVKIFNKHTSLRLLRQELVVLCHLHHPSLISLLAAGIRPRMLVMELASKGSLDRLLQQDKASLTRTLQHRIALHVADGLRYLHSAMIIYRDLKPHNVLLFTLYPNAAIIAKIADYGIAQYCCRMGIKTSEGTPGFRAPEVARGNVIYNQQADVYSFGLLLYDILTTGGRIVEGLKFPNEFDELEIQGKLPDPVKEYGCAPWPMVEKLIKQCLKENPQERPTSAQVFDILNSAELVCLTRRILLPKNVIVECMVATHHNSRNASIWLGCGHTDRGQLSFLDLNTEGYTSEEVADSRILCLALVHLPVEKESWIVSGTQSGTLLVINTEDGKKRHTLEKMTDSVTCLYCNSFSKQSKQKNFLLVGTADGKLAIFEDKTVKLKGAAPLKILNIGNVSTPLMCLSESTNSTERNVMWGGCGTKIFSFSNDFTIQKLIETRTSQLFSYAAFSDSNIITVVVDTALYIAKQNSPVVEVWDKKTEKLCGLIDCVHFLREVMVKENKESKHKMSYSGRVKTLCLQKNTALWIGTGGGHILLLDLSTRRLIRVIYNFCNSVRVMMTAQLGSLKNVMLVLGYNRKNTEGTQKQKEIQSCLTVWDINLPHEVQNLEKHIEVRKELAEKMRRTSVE

| SMILES | IC50 [nM] |
| --- | --- |
| CN1CCN2CCCC[C@H]2COc2ccc(F)c(c2)-c2cnn3ccc1nc23 [Example N19] | < 100 |
| CN1CCN2CCC[C@H]2CNc2ccc(F)c(c2)-c2cnn3ccc1nc23 [Example N16] | < 100 |
| Fc1cc(Cl)c2cc1-c1cnn3ccc(nc13)NCCN1CCC[C@H]1CO2 [Example N26] | < 100 |
| Fc1ccc2cc1-c1cnn3ccc(nc13)NCCN1CCCC[C@H]1CO2 [Example N17] | < 100 |
| Fc1ccc2cc1-c1cnn3ccc(nc13)NCCN1CCNC[C@H]1CO2 [Example N20] | < 100 |
| CC1(C)CN2CCNc3ccn4ncc(c4n3)-c3cc(ccc3F)O[C@H](CN1)C2 [Example N58] | < 100 |
| Fc1ccc2cc1-c1cnn3ccc(nc13)OCCN1CCC(CC1)N2 [Example N7] | < 100 |
| Fc1ccc2cc1-c1cnn3ccc(nc13)NCCN1CCOC[C@H]1CO2 [Example N22] | < 100 |
| c1cc2cc(c1)-c1cnn3ccc(nc13)NCCN1CCC[C@H]1CO2 [Example N1] | < 100 |
| CN1CCN2CCNc3ccn4ncc(c4n3)-c3cc(ccc3F)OC[C@H]2C1 [Example N36] | < 100 |
| Fc1ccc2cc1-c1cnn3ccc(nc13)NC1CCN(CCN2)CC1 [Example N3] | < 100 |
| Fc1ccc2cc1-c1cnn3ccc(nc13)NCCN1CCC[C@H]1CN2 [Example N2] | < 100 |
| Fc1ccc2cc1-c1cnn3ccc(nc13)NCCN1C[C@@H](CN3CCC[C@H]3C1)O2 [Example N43] | < 100 |
| C=CCN1C[C@H]2COc3ccc(F)c(c3)-c3cnn4ccc(nc34)NCCN2CC1(C)C [Example N63] | < 100 |
| CC1(C)CN2CCNc3ccn4ncc(c4n3)-c3cc(ccc3F)OC[C@@H]2CN1C1CC1 [Example N62] | < 100 |
| Fc1ccc2cc1-c1cnn3ccc(nc13)OCCCN1CCC[C@H]1CN2 [Example N13] | 100 to 1000 |
| CC(=O)N1CCN2CCNc3ccn4ncc(c4n3)-c3cc(ccc3F)OC[C@@H]2C1 [Example N32] | < 100 |
| Fc1ccc2cc1-c1cnn3ccc(nc13)NCCN1CCNC[C@H](C1)O2 [Example N28] | < 100 |
| CN1CCN2C[C@@H](CN3CCC[C@H]3C2)Oc2ccc(F)c(c2)-c2cnn3ccc1nc23 [Example N44] | < 100 |
| Fc1ccc2cc1-c1cnn3ccc(nc13)N[C@@H]1CCN(CCO2)C1 [Example N60] | < 100 |
| Fc1ccc2cc1-c1cnn3ccc(nc13)OC1CCN(CCN2)CC1 [Example N9] | 100 to 1000 |

| SMILES | IC50 [nM] |
| --- | --- |
| C[C@H]1CN2CCNc3ccn4ncc(c4n3)-c3cc(ccc3F)O[C@H](CN1)C2 [Example N54] | < 100 |
| Fc1ccc2cc1-c1cnn3ccc(nc13)NCCN1CCC(CC1)N2 [Example N4] | < 100 |
| Fc1ccc2cc1-c1cnn3ccc(nc13)N[C@H]1CCCN(CCO2)C1 [Example N57] | < 100 |
| Fc1ccc2cc1-c1cnn3ccc(nc13)NCCN1C[C@H]3CCCN3C[C@H]1CO2 [Example N27] | < 100 |
| Fc1ccc2cc1-c1cnn3ccc(nc13)NCCN1CCC(CC1)O2 [Example N33] | < 100 |
| CN1c2ccn3ncc(c3n2)-c2cc(ccc2F)OCCN2CC[C@@H]1C2 [Example N61] | < 100 |
| Fc1ccc2cc1-c1cnn3ccc(nc13)NCCCN1CCC[C@H]1CO2 [Example N14] | < 100 |
| CC(C)[C@H]1CN2CCN(C)c3ccn4ncc(c4n3)-c3cc(ccc3F)OC[C@@H]2CN1 [Example N56] | 100 to 1000 |
| CC(C)[C@H]1CN2CCNc3ccn4ncc(c4n3)-c3cc(ccc3F)O[C@H](CN1)C2 [Example N51] | < 100 |
| Cc1cc(F)c2cc1NC[C@@H]1CCCN1CCNc1ccn3ncc-2c3n1 [Example N10] | < 100 |
| C[C@@H]1CN2CCNc3ccn4ncc(c4n3)-c3cc(ccc3F)OC[C@@H]2CN1C [Example N46] | < 100 |
| C[C@@H]1CN2CCNc3ccn4ncc(c4n3)-c3cc(ccc3F)OC[C@@H]2CN1 [Example N45] | < 100 |
| C[C@H]1CN2CCNc3ccn4ncc(c4n3)-c3cc(ccc3F)OC[C@@H]2CN1 [Example N53] | < 100 |
| Fc1ccc2cc1-c1cnn3ccc(nc13)CCCN1CCC[C@H]1CO2 [Example N37] | < 100 |
| CN1CCN2C[C@H](CN3CCC[C@H]3C2)Oc2ccc(F)c(c2)-c2cnn3ccc1nc23 [Example N31] | < 100 |
| CN1CCN2CCOC[C@H]2COc2ccc(F)c(c2)-c2cnn3ccc1nc23 [Example N25] | < 100 |
| CN1CCN2CCC[C@H]2COc2ccc(F)c(c2)-c2cnn3ccc1nc23 [Example N11] | < 100 |
| Fc1ccc2cc1-c1cnn3ccc(nc13)NCCN1CCCC[C@H](C1)O2 [Example N18] | < 100 |
| CN1CCN2CCC(CC2)Oc2ccc(F)c(c2)-c2cnn3ccc1nc23 [Example N34] | < 100 |
| C[C@@H]1CN2CCNc3ccn4ncc(c4n3)-c3cc(ccc3F)OC[C@@H]2CN1C1CC1 [Example N47] | < 100 |
| Fc1ccc2cc1-c1cnn3ccc(nc13)NCCN1C[C@@H]3CCCN3C[C@H]1CO2 [Example N38] | < 100 |

| SMILES | IC50 [nM] |
| --- | --- |
| Fc1ccc2cc1-c1cnn3ccc(nc13)NCCN1CCC=C[C@H]1CO2 [Example N41] | < 100 |
| C[C@@H]1CN2CCNc3ccn4ncc(c4n3)-c3cc(ccc3F)OC[C@@H]2CN1CC1CC1 [Example N49] | < 100 |
| CC1(C)CN2CCNc3ccn4ncc(c4n3)-c3cc(ccc3F)OC[C@@H]2CN1 [Example N55] | < 100 |
| Fc1ccc2cc1-c1cnn3ccc(nc13)NCCN1CCC[C@H]1CO2 [Example N8] | < 100 |
| Fc1ccc2cc1-c1cnn3ccc(nc13)NCCN1C[C@H]3CCCN3C[C@@H]1CO2 [Example N30] | < 100 |
| Fc1ccc2cc1-c1cnc3ccc(nn13)NCCN1CCCC[C@H](C1)O2 [Example N59] | < 100 |
| Fc1ccc2cc1-c1cnn3ccc(nc13)NCCC1CCCN1CCN2 (stereo not drawn) [Example N5] | < 100 |
| Fc1ccc2cc1-c1cnn3ccc(nc13)NC1CCN(CCCN2)C1 (stereo not drawn) [Example N6] | < 100 |
| Fc1ccc2cc1-c1cnn3ccc(nc13)NCCN1C[C@@H](F)C[C@H]1CO2 [Example N39] | 100 to 1000 |
| Fc1ccc2cc1-c1cnn3ccc(nc13)NCCN1C[C@H](F)C[C@H]1CO2 [Example N12] | < 100 |
| CN1CCN2C[C@H]3CCCN3C[C@H]2COc2ccc(F)c(c2)-c2cnn3ccc1nc23 [Example N29] | < 100 |
| Fc1ccc2cc1-c1cnn3ccc(nc13)OCCN1CCC[C@H]1CN2 [Example N21] | < 100 |
| CN1CCN2C[C@@H]3CCCN3C[C@H]2COc2ccc(F)c(c2)-c2cnn3ccc1nc23 [Example N42] | < 100 |
| CCN1C[C@H]2COc3ccc(F)c(c3)-c3cnn4ccc(nc34)NCCN2C[C@H]1C [Example N50] | < 100 |
| CN1CCN2CCN(C)c3ccn4ncc(c4n3)-c3cc(ccc3F)OC[C@@H]2C1 [Example N24] | < 100 |
| Fc1ccc2cc1-c1cnn3ccc(nc13)NCCN1CCNC[C@@H]1CO2 [Example N35] | < 100 |
| CCCN1C[C@H]2COc3ccc(F)c(c3)-c3cnn4ccc(nc34)NCCN2C[C@H]1C [Example N48] | < 100 |
| Fc1ccc2cc1-c1cnc3ccc(nn13)NCCN1CCC[C@H]1CO2 [Example N52] | < 100 |
| CN1CCN2CCNc3ccn4ncc(c4n3)-c3cc(ccc3F)OC[C@@H]2C1 [Example N23] | < 100 |
| CN1c2ccn3ncc(c3n2)-c2cc(ccc2F)OCCN2CCC1CC2 [Example N15] | < 100 |
| C[C@H]1C[C@@H]2CCN1CCNc1ccn3ncc(c3n1)-c1cc(ccc1F)O2 [Example N40] | < 100 |
